Reference: PMC10969560, “Eye Drop with Fas-Blocking Peptide Attenuates Age-Related Macular Degeneration” (Cells, 2024)

What was measured:
[1] = test system: NaIO3-induced retinal degeneration mice; assay: In vivo real-time PCR of eye posterior hemisphere in NaIO3-induced retinal degeneration mouse model; design: species or system BALB/c mice; details: N=3, Figure 3D; for expression of Fas receptor, inflammatory cytokines, and macrophages compared to the mock group (qPCR): posterior hemisphere
Source text: The mouse eye posterior hemisphere was dissected using Vannas scissors. Subsequently, total RNA was extracted from the posterior hemisphere of the left eye using the RNAiso kit (Takara). RNA was reverse-transcribed with the High-Capacity cDNA Reverse Transcription Kit (Applied Biosystems, Waltham, MA, USA) and quantified using PowerUp™ SYBR™ Green Master Mix (Thermo Fisher Scientific, Waltham, MA, USA) on an ABI 7500 Fast Real-Time PCR system (Applied Biosystems, Waltham, MA, USA). Relative expression was determined using the ΔΔCt method, normalized against GAPDH mRNA levels. The primer sequences used are depicted in Table 2.

[2] = test system: NaIO3-induced retinal degeneration mice; assay: H&E histology in NaIO3-induced retinal degeneration mouse model; assay type: in vivo, BALB/c mice; details: NaIO3 30 mg/kg i.v., N=3, Figure 3B
Description: (§1) To confirm the therapeutic effect of 6R-FBP, histological evaluation was conducted through hematoxylin and eosin (H&E) staining and the TUNEL assay. The eyes were fixed with 4% paraformaldehyde in PBS at room temperature for 20 min. After fixation, the eyes were sequentially incubated in 10%, 20%, and 30% (w/v) sucrose solution diluted in PBS for 30 min each at room temperature. Subsequently, the eyeballs were sagittally halved with a razor blade and embedded in Tissue-Tek® OCT Compound, and then frozen immediately in a liquid nitrogen chamber. Trimming was minimized to maintain controlled distances and ensure consistency, and sections were sliced at a thickness of 10 μm. Sections from the eye cryoblock were used for H&E staining and the TUNEL assay. The TUNEL assay was conducted according to the manufacturer’s protocol using the TUNEL assay kit (Abcam).

[3] = test system: NaIO3-induced retinal degeneration mice; assay: TUNEL assay in NaIO3-induced retinal degeneration mouse model; assay type: in vivo, BALB/c mice; details: N=3, Figure 3C
Description: as §1

[4] = test system: Fas-expressing Jurkat cells; assay: Size-dependent FBP binding test in Jurkat cells (flow cytometry); details: N=3, Figure S4A
Source text: (§2) Figure S4. Size- dependent FBP binding test in Jurkat cells. (A) Size- dependent FBP flow cytometry analysis of binding in Jurkat cells. (B) Size-dependent FBP flow cytometry analysis of apoptosis in Jurkat cells. The data are pres en ted as the mean ± SD (N=3 per group). *P<0.05, ***P<0.001, and ns indicates not

Jurkat cells = assay: Flow cytometry analysis of Fas/FasL-mediated apoptosis in Jurkat cells; assay type: cell-based; details: N=3, Figure S4B
Source text: as §2

[5] = test system: NaIO3-induced retinal degeneration mice; details: mouse, in vivo
Description: Retinal degeneration was induced by intravenous injection of NaIO3 (30 mg/kg) in 6-week-old male BALB/c mice (N = 3 per group), weighing 18–22 g (Orient Bio, Seoul, Korea). The eye drop administration group received peptides dissolved in PBS at dosages of 10 mg/mL (50 μg/5 μL) per ocular instillation. For intravitreal administration, peptide solutions dissolved in PBS were administered into the vitreous humor at a concentration of 1 mg/mL (1 μg/1 μL) per administration.
The N-terminal of the target peptide was fluorescently tagged using Alexa Fluor™ 647 NHS Ester (Succinimidyl Ester) (Invitrogen, Carlsbad, CA, USA), following the manufacturer’s protocol. Subsequently, free dye molecules were removed through a PD-10 desalting column (GE Healthcare, Milwaukee, WI, USA). Seven days after induction with NaIO3, Alexa647-conjugated peptides were administered via eye drops. Twelve hours after the last administration, organs were harvested for experiments, and Alexa647 signals were detected on whole organs using a FOBI imaging machine ([sequence], Cheongju, Republic of Korea).
For IHC, eyes were harvested and embedded in the Tissue-Tek® OCT Compound (Sakura Finetek Europe BV, Alphen aan den Rijn, The Netherlands) to prepare cryoblocks for cryosectioning. After freezing the eyes in the Tissue-Tek® OCT Compound, the eyes were cryosectioned to a thickness of 10 μm and mounted with ProLong™ Glass Antifade Mountant with NucBlue™ Stain (Invitrogen). The anti-Fas rabbit mAb (#4233S, Cell Signaling Technology, Danvers, MA, USA) was used to capture the Fas receptor, and the Fas antibody was subsequently detected using Goat Anti-Rabbit IgG H&L (Alexa Fluor® 488) (ab150077, Abcam, Cambridge, UK). A ZEISS Axio Scan.Z1 Slide Scanner (Carl Zeiss, Oberkochen, Germany) was employed to detect NucBlue™ stained cell nuclei and the Alexa647-conjugated peptide signals.

Fas = assay: RT-PCR of Fas expression in NaIO3-treated ARPE-19 cells; assay type: cell-based, human; details: ARPE-19, NaIO3 10 mM + peptide 700 μM, 24 h; N=3; Figure 1A
Description: (§3) After 24 h of treatment with NaIO3 (10 mM) and the FBP peptide (700 μM), the cells were harvested for analysis. Total RNA from the ARPE-19 cells was extracted using the RNAiso kit (Takara, Kyoto, Japan). Total RNA was reverse-transcribed into cDNA using the High-Capacity cDNA Reverse Transcription Kit (Applied Biosystems, Waltham, MA, USA). The quantification of gene expression was performed using PowerUp™ SYBR™ Green Master Mix (Thermo Fisher Scientific, Waltham, MA, USA) on an ABI 7500 Fast Real-Time PCR system (Applied Biosystems, Waltham, MA, USA). The sequences of primer pairs used for real-time PCR are depicted in Table 2.

ARPE-19 cells [6] = assay: Annexin V/PI flow cytometry apoptosis analysis in NaIO3-treated ARPE-19 cells; assay type: cell-based, human; details: ARPE-19, NaIO3 10 mM + peptide 700 μM, 24 h; N=3; Figure 1B
Description: The efficacy of FBP on the inhibition of ARPE-19 cell apoptosis was assessed through annexin V/propidium iodide (PI) staining, followed by flow cytometry analysis. […] After 24 h of treatment with NaIO3 (10 mM) and the FBP peptide (700 μM), the cells were harvested and stained using the Dead Cell Apoptosis Kits with annexin V for Flow Cytometry (Invitrogen, Carlsbad, CA, USA), following the manufacturer’s protocol. The stained cells were collected and analyzed using a BD FACSCalibur™ system (Becton Dickinson, Franklin Lakes, NJ, USA).

cleaved caspase-3 and 8 = assay: Western blot of apoptosis-related proteins in NaIO3-treated ARPE-19 cells; assay type: cell-based, human; details: ARPE-19, NaIO3-treated; Figure 1C
Description: Total protein samples were extracted from ARPE-19 cells using ice-cold RIPA buffer containing a protease inhibitor cocktail. A 4× sample buffer containing Tris-(2-Carboxyethyl)phosphine (Invitrogen, Carlsbad, CA, USA) was prepared by mixing 950 µL of 4× Laemmli sample buffer (GenDEPOT) with 50 µL of Tris-(2-Carboxyethyl)phosphine (Invitrogen). Protein samples (15 μg) were diluted in the sample buffer and heated at 95 °C for 5 min. The samples were then loaded onto a 12% SDS-PAGE gel and transferred onto a PVDF transfer membrane. The blots were probed with rabbit anti-cleaved caspase-3 (1:1000, Abcam, Cambridge, UK, ab52293), anti-cleaved caspase-8 (1:1000, Abcam, ab25901) and rabbit polyclonal anti-Fas (1:1000, Abcam, ab82419). Secondary polyclonal antibodies were probed with rabbit IgG coupled to HRP (1:2000, Abcam, ab97051). Finally, the blots were developed using ECL Western blotting substrate (Promega, Madison, WI, USA).

ARPE-19 cells [7] = test system: ARPE-19 cells
Description: To confirm the cytotoxicity of CPP-conjugated FBP (4R-FBP, 5R-FBP, 6R-FBP, 9R-FBP) on ARPE-19 cells, the cells were plated in a 12-well plate at a density of 2 × 10^5/mL. After 24 h of treatment with various peptides (4R-FBP, 5R-FBP, 6R-FBP, 9R-FBP, and FBP), the CCK-8 assay was performed as per the manufacturer’s protocol.
Peptide toxicity was assessed
using CCK-8 assay in ARPE-19 cell. The data are presented as the mean ± SD (N=3 per group). ns

[8] = test system: NaIO3-induced retinal degeneration rabbits; assay: H&E staining, ONL to total retinal thickness, in NaIO3-induced retinal degeneration rabbits; assay type: in vivo, chinchilla rabbits; details: rabbit, Day 14, N=4, Figure 4D
Description: (§4) The efficacy of the treatment was evaluated through an experiment conducted by KNOTUS, a contract research organization. In brief, retinal degeneration was induced by intravenous injection of NaIO3 (60 mg/kg) in 20 chinchilla rabbits, weighing 2 kg.
(§5) The eye drop administration group received dosages of 5 mg/mL (250 μg/50 μL) per ocular instillation. For intravitreal administration, peptide solutions (5 mg/mL) were administered in increments of 40 μL per administration. A pipette was used to administer the test substance onto the central cornea of the right eye for each experimental group.
(§6) Anesthetized animals were administered the test substance via subconjunctival injection into the right eye using a 31-gauge syringe needle attached to a syringe. In the case of eye drop administration, the peptides and PBS were administered twice daily for 2 weeks, for a total of 28 administrations. For intravitreal administration, a single dose of the peptide was administered the day after the NaIO3 injection.
On the concluding day of the experiment (Day 14), the animals were anesthetized using the previously described mixture of Zoletil®50 and Rompun^TM, after which they were sacrificed. NaIO3-induced retinal degeneration eyes were then extracted, and the central cornea was punctured using an injection needle. Subsequently, the specimens were fixed in a 10% neutral buffered formalin solution. For histopathological examination, the fixed tissues were subjected to processes such as fixation, dehydration, paraffin embedding, and sectioning. H&E staining was then performed, and the proportion (%) of the thickness of the outer nuclear layer (ONL) to the overall retinal thickness was calculated using an Olympus BX-53 optical microscope (Olympus, Tokyo, Japan). Two slides were prepared per eyeball relative to the optic nerve. Measurements were taken at three points on each slide, amounting to a total of six values, which were averaged.

[9] = test system: NaIO3-induced retinal degeneration rabbits; assay: Fundus imaging of RPE degenerated area in NaIO3-induced retinal degeneration rabbit model; assay type: in vivo, chinchilla rabbits; details: for RPE degeneration compared with mock treatment (fundus imaging): NaIO3 60 mg/kg i.v., N=4, Figure 4B; for level of RPE degeneration on day 14 compared with mock group (fundus imaging): day 14, N=4, Figure 4B
Description: as §4, §5, §6
Before the administration of NaIO3 (Day 0) and upon concluding the experiment (Day 14), the right eyes of the rabbits were treated with a mydriatic agent (1% midriacyl eye drops). Subsequently, the rabbits were anesthetized with a mixture of Zoletil®50 (Virbac, Carros, France) and Rompun^TM (Bayer AG, Leverkusen, Germany) through intravenous injection (marginal ear vein) at a dosage of 0.1 mL/kg. Fundus imaging was conducted using a fundus camera (TRC-50IX, TOPCON, Tokyo, Japan). The retinal images were analyzed using Image J software version 1.54d (NIH, Bethesda, MD, USA) to determine the area of degeneration in the RPE, with the RPE injury area being manually selected. The total area of the retina, excluding the optic nerve region, was defined as the total area. The proportion of degenerated area was calculated as a percentage using Equation (1). Degenerated area (%) = Degenerated area/Total area(1)

Fas/FasL = details: neuronal cells; previous study; cited from earlier work
NF-κB, ERK, and JNK = assay: RT-PCR of cytokine and signaling pathway-related genes in NaIO3-treated ARPE-19 cells; assay type: cell-based, human; details: ARPE-19, NaIO3 10 mM + FBP 700 μM, 24 h; Figure 1D
Description: as §3

[10] = test system: NaIO3-induced ARPE-19 cells; assay: CCK-8 cell viability in NaIO3-induced ARPE-19 cells; assay type: cell-based, human; details: NaIO3 10 mM, 24 h, FBP 100, 300, 500, 700, 900 μM, three independent experiments, Figure S2
Description: All experiments were performed using cells within specified passages.
Figure S2. Concentration -dependent cel l viability in NaI O3-indu ced ARPE-19 cells. Cell viability under concentration-dependent conditions wa s evaluated in NaIO3-induced ARPE- 19 cells. The data are presented as the mean ± SD from three independent experiments. ***P<0.001, and ns indicates not significa nt.

[11] = eye drop application, peptides 10 mg/mL (50 μg/5 μL)
[12] = eye drops 5 mg/mL (250 μg/50 μL) twice daily for 14 days

Row | size-dependent retinal delivery (confocal, Alexa647 signal) [5] | Molecule | levels of M2 macrophages compared to the mock group (qPCR, CD206) ([1]; eye drop application) | expression of Fas receptor, inflammatory cytokines, and macrophages compared to the mock group (qPCR) ([1]; eye drop application) | therapeutic effect on integrity of the retinal layer (H&E staining) [2, 11] | apoptosis levels in retina (TUNEL) ([3]; eye drop application) | binding to Fas-expressing Jurkat cells [4] | inhibition of Fas/FasL-mediated apoptosis (Jurkat cells) | expression of Fas (RT-PCR) (Fas) | apoptosis (annexin V/PI staining) compared with mock group (ARPE-19 cells [6]) | levels of cleaved caspase-3 and 8 (Western blot) (cleaved caspase-3 and 8) | proportion of thickness of ONL to total retinal thickness compared with mock group (H&E) ([8]; eye drops twice daily) | RPE degeneration compared with mock treatment (fundus imaging) [9, 12] | other results
1 |  | C[C@@H]1C[C@H]2[C@@H]3CCC4=CC(=O)C=C[C@]4(C)[C@@]3(F)[C@@H](O)C[C@]2(C)[C@@]1(O)C(=O)CO [Dexa, dexamethasone, reference compound] | increased levels | decreased expression | therapeutic effects | lower apoptosis levels |  |  |  |  |  |  |  | 
2 |  | CDEHF [5-mer, 5-mer truncated FBP, CDEHF] |  |  |  |  | demonstrated binding | could not inhibit |  |  |  |  |  | 
3 | successfully delivered | DEHF [4-mer] |  |  |  |  | demonstrated binding | could not inhibit |  |  |  |  |  | 
4 |  | GGGRRGGG [Ctrl, nonspecific control peptide, GGGRRGGG, reference compound] |  |  | no therapeutic effect | higher apoptosis levels |  |  | increased | no protective effects against apoptosis | upregulation |  |  | 
5 | robust fluorescence signals | RRRRRRGGGGYCDEHFCY [6R-FBP, hexa-arginine (6R) conjugated with FBP] | increased levels | decreased expression | therapeutic effects | lower apoptosis levels |  |  |  |  |  | maintenance of the ONL | significant reduction in RPE degeneration | toxicity of CPP-conjugated FBP in retinal cells (ARPE-19 cells [7]): lower toxicity
6 |  | YCDEHFCY [FBP] |  |  | no therapeutic effect | higher apoptosis levels |  |  | reduced | statistically significant decrease in apoptosis | significant decrease | maintenance of the ONL | significant reduction in RPE degeneration | inhibition of Fas/FasL ligation (Fas/FasL): effective inhibition of Fas/FasL ligation; proportion of thickness of ONL to total retinal thickness compared with mock group (H&E) ([8]; single intravitreal injection): maintenance of the ONL; transfer to other organs (fluorescence signal vs normal group) [5]: not transferred to any other organ but the eyes; levels of M2 macrophages compared to the mock group (qPCR, CD206) ([1]; intravitreal injection): increased levels; expression of Fas receptor, inflammatory cytokines, and macrophages compared to the mock group (qPCR) ([1]; intravitreal injection): decreased expression; therapeutic effect on integrity of the retinal layer (H&E staining) ([2]; intravitreal injection 1 mg/mL (1 μg/1 μL)): therapeutic effects; levels of NF-κB, ERK, and JNK (RT-PCR) (NF-κB, ERK, and JNK): decreased levels; RPE degeneration compared with mock treatment (fundus imaging) ([9]; single intravitreal injection 5 mg/mL, 40 μL): significant reduction in RPE degeneration; level of RPE degeneration on day 14 compared with mock group (fundus imaging) ([9]; eye drops twice daily for 14 days): significantly lower; level of RPE degeneration on day 14 compared with mock group (fundus imaging) ([9]; single intravitreal injection): significantly lower; FBP concentration at which viability of NaIO3-induced ARPE-19 cells was maximum [10]: exceeding 700 μM; apoptosis levels in retina (TUNEL) ([3]; intravitreal injection): lower apoptosis levels
